Key:
[1] = tested on: horses; test: Coagulation effects study, IV BID or TID for 9 days: coagulation panel; assay type: in vivo; conditions: for Prothrombin Time LSMEAN: in s; for Difference in Individual Horse Day 10 PT and Baseline PT: Day 10 PT minus highest baseline PT
Description: (§1) The purpose of this study was to evaluate the effects of metamizole on coagulation parameters and pharmacokinetic parameters when administered intravenously to horses for 9 days at doses of 0 mg/kg (0×), 30 mg/kg (1×), 60 mg/kg (2×), and 90 mg/kg (3×) of body weight. Doses of 0×, 1×, 2×, and 3× were administered twice daily (BID), every 12 hours±120 min. Doses of 1× and 2× were administered three times daily (TID), every 8 hours±120 min. Metamizole plasma concentrations were assessed in the 1×BID, 3×BID, 1×TID, and 2×TID treatments groups to evaluate for evidence of accumulation.
This was a prospective, randomized, masked, placebo-controlled, parallel-group laboratory study. The protocol was approved by the research laboratory's Institutional Animal Care and Use Committee (IACUC). The study was conducted in compliance with the principles of the relevant CVM Good Clinical Practices Guidelines. Horse care and housing was in compliance with Guide for the Care and Use of Agricultural Animals in Research and Teaching. The study was conducted at a research laboratory with extensive experience in regulatory studies of large animals in the United States.
(§2) The investigational drug was a sterile injectable formulation of dipyrone (Zimeta®, Corden Pharma, Caponago, Italy) (500 mg/mL) in 100 mL glass bottles. The placebo was sterile injectable saline (0.9% Saline, Nova-Tech Inc, Grand Island, NE) (0.9% sodium chloride) in 500 mL plastic bottles labeled for veterinary use. Dipyrone treatment groups were 30 mg/kg/dose (1×) administered twice daily (BID), 1× administered three times daily (TID), 60 mg/kg/dose (2×) BID, 2×TID, and 90 mg/kg/dose (3×) BID. Placebo treatment group, (0×) BID, were saline administered at a volume to match the 1× dipyrone group. The dose was calculated based on body weight and administered for nine consecutive days (Days 1-9). Due to the large volume of the injection at the higher test intervals, treatment was administered via indwelling intravenous catheters. Intravenous catheters were placed using standard techniques. Horses were sedated with xylazine (XylaMed™, VetOne, MWI, Boise, Id.) (0.6 mg/kg, IV) and the skin was desensitized with subcutaneous injection of lidocaine (Lidocaine 2%, VetOne, MWI, Boise, Id.). Intravenous catheters were replaced at the discretion of the study director and were maintained with heparinized saline flush prior to, and following, dose administration.
(§3) Horses were acclimated to the facility for 14 days prior to start of the treatment phase. […] On Day −1, thirty-two horses were randomized by the study statistician and moved to their assigned pens. On Day −1 (baseline), Day 4, and Day 10 horses had blood collected for a coagulation panel. A physical exam was performed prior to study start and on Day 10.
For continuous endpoints with repeated post-treatment measurements (coagulation), repeated measurement analysis of covariance (SAS MIXED procedure repeated measures of analysis of covariance (RMANCOVA)) were used to evaluate a model including treatment, time, sex, treatment by sex interaction, treatment by time interaction, time by sex interaction, and treatment by time by sex three-way interaction as fixed effects. In addition, baseline values were included as a covariate and remained in the model regardless of its significance. Baseline values were defined as the values prior to and nearest to the first dosing.

[2] = tested on: horses; test: Coagulation effects study, IV BID or TID for 9 days: clinical signs; assay type: in vivo
Description: as §1, §2, §3

[3] = 2X TID, 60 mg/kg IV three times daily
[4] = 3X BID, 90 mg/kg IV twice daily
[5] = all treatment groups (30-90 mg/kg IV BID or TID, 9 days)
[6] = 1X BID, 30 mg/kg IV twice daily, n = 6
[7] = 1X TID, 30 mg/kg IV three times daily, n = 4
[8] = 2X BID, 60 mg/kg IV twice daily, n = 6
[9] = 2X TID, 60 mg/kg IV three times daily, n = 6
[10] = 3X BID, 90 mg/kg IV twice daily, n = 6

For `Cc1c(N(C)CS(=O)(=O)O)c(=O)n(-c2ccccc2)n1C` [dipyrone, [(2,3-dihydro-1,5-dimethyl-3-oxo-2-phenyl-1H-pyrazol-4-yl)methylamino] methanesulfonic acid], the “Prothrombin Time LSMEAN” value ([1]; 1X BID, 30 mg/kg IV twice daily for 9 days) was 13.407, the “Prothrombin Time LSMEAN” value ([1]; 1X TID, 30 mg/kg IV three times daily for 9 days) was 13.553 and the “Prothrombin Time LSMEAN” value ([1]; 2X BID, 60 mg/kg IV twice daily for 9 days) was 13.469. For the same molecule, the “Prothrombin Time LSMEAN” value ([1]; 2X TID, 60 mg/kg IV three times daily for 9 days) was 13.733, the “Prothrombin Time Day 4 Range” value [1, 3] was 12.9 to 15.6 s and the “Prothrombin Time Day 10 Range” value [1, 3] was 13.2 to 16.6 s. For the same molecule, the “Difference in Individual Horse Day 10 PT and Baseline PT” value [1, 3] was 0.1 to 0.5 s, the “Prothrombin Time LSMEAN” value ([1]; 3X BID, 90 mg/kg IV twice daily for 9 days) was 14.238 and the “Prothrombin Time Day 4 Range” value [1, 4] was 13.2 to 14.5 s. The “Prothrombin Time Day 10 Range” value [1, 4] was 13.4 to 14.9 s, the “Difference in Individual Horse Day 10 PT and Baseline PT” value [1, 4] was 0.1 to 0.7 s and the “Activated partial thromboplastin time (APTT) or fibrinogen” value [1, 5] was “No main treatment effect”. The “Depression, number of horses” value [2, 6] was 0, the “Dermatitis, number of horses” value [2, 6] was 0 and the “Minor gastrointestinal signs or inappetence, number of horses” value [2, 6] was 2. For the same molecule, the “Minor respiratory signs (nasal discharge and or cough), number of horses” value (“Minor respiratory signs” for short) [2, 6] was 1, the “Ocular discharge, number of horses” value [2, 6] was 0 and the “Phlebitis and other catheter-related changes to jugular vein, number of horses” value [2, 6] was 2. For the same molecule, the “Suture site abscesses, number of horses” value [2, 6] was 1, the “Depression, number of horses” value [2, 7] was 0 and the “Dermatitis, number of horses” value [2, 7] was 0. The “Minor gastrointestinal signs or inappetence, number of horses” value [2, 7] was 1, the “Minor respiratory signs” value [2, 7] was 0 and the “Ocular discharge, number of horses” value [2, 7] was 0. The “Phlebitis and other catheter-related changes to jugular vein, number of horses” value [2, 7] was 1, the “Suture site abscesses, number of horses” value [2, 7] was 0 and the “Depression, number of horses” value [2, 8] was 0. For the same molecule, the “Dermatitis, number of horses” value [2, 8] was 0, the “Minor gastrointestinal signs or inappetence, number of horses” value [2, 8] was 2 and the “Minor respiratory signs” value [2, 8] was 0. For the same molecule, the “Ocular discharge, number of horses” value [2, 8] was 1, the “Phlebitis and other catheter-related changes to jugular vein, number of horses” value [2, 8] was 3 and the “Suture site abscesses, number of horses” value [2, 8] was 0. The “Depression, number of horses” value [2, 9] was 1, the “Dermatitis, number of horses” value [2, 9] was 0 and the “Minor gastrointestinal signs or inappetence, number of horses” value [2, 9] was 2. For the same molecule, the “Minor respiratory signs” value [2, 9] was 0, the “Ocular discharge, number of horses” value [2, 9] was 0 and the “Phlebitis and other catheter-related changes to jugular vein, number of horses” value [2, 9] was 2. For the same molecule, the “Suture site abscesses, number of horses” value [2, 9] was 1, the “Depression, number of horses” value [2, 10] was 0 and the “Dermatitis, number of horses” value [2, 10] was 1. The “Minor gastrointestinal signs or inappetence, number of horses” value [2, 10] was 1, the “Minor respiratory signs” value [2, 10] was 1 and the “Ocular discharge, number of horses” value [2, 10] was 0. For the same molecule, the “Phlebitis and other catheter-related changes to jugular vein, number of horses” value [2, 10] was 3, the “Suture site abscesses, number of horses” value [2, 10] was 0 and the “Abnormal clinical signs in the treatment period” value [2, 5] was “none were considered treatment related”.
